Test results published in patent publication US10934297B2, “5-heteroaryl substituted indazole-3-carboxamides and preparation and use thereof” (Samumed, LLC, priority 2018, dated 2021).

Columns and labels:
[1] = system: Wnt activity (Sp5-Luc reporter in SW480 cells); assay: Screening assay for Wnt activity: Sp5-Luc reporter gene assay in SW480 colon carcinoma cells; assay type: cell-based, human; details: Homo sapiens, 36 to 48 hours
Summary of the method: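 SW480 colon carcinoma cells stably carrying a lentiviral luciferase reporter driven by an Sp5 promoter with eight TCF/LEF sites, plated at 4,000 cells/well in DMEM with 1% FBS. Compound exposure for 36–48 h at 37 °C, then luminescence read. Signals normalized to DMSO; EC50 from four-parameter nonlinear fit.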

DYRK1A kinase = DYRK1A kinase (Homo sapiens (Human), UniProt Q13627); assay: DYRK1A kinase assay (Ser/Thr 18 peptide Z-lyte FRET); assay type: biochemical; details: read-out: EC50 (method: IC50)
Summary of the method: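 This Z-lyte FRET assay reads the coumarin/fluorescein emission ratio. Compounds were incubated with the reaction mixture for 1 h at room temperature, followed by development reagent for a further 1 h at room temperature, in duplicate.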

GSK3β kinase = GSK3β kinase (Homo sapiens (Human), UniProt P49841); assay: GSK3β kinase assay (Ser/Thr 09 peptide Z-lyte FRET); assay type: biochemical; details: read-out: EC50 (method: IC50)
Summary of the method: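 Non-radioactive Z-lyte FRET read-out, kinase activity expressed as coumarin/fluorescein emission ratio. Compounds incubated with the reaction mixture one hour at room temperature in duplicate, then development buffer added for another hour. IC50 from non-linear regression of dose-response curves.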

[2] = system: SW480 colon carcinoma cells; assay: Cell viability assay (CellTiter-Glo) in SW480 colon carcinoma cells; assay type: cell-based, human; details: Homo sapiens, 96 h, four days
Summary of the method: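 SW480 cells stably carrying an Sp5-promoter luciferase reporter were plated at 2,000 cells/well in DMEM with 1% FBS and treated with compound for four days at 37 °C. Viability was read as ATP luminescence with CellTiter-Glo after about 12 min; DMSO-treated wells served as controls.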

[3] = system: primary human fibroblasts derived from IPF patients (LL29 cells); assay: Inhibition of the fibrotic process: αSMA staining in TGF-β1 treated LL29 fibroblasts; assay type: cell-based; details: Homo sapiens, Fibroblast, 96 h; LL29 cells, TGF-β1 20 ng/mL, 4 days, % αSMA positive cells
Summary of the method: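 LL29 fibroblasts from IPF patients, in F12 medium with 1% FBS, treated with TGF-β1 plus compound; TGF-β1 with DMSO as positive control, DMSO alone as negative control. After 4 days' incubation, SYTOX green nucleic acid stain added at 1 μM final, 30 min at room temperature.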

IL-6 = IL-6 inhibition in LPS-stimulated human peripheral blood mononuclear cells (HTRF); assay type: cell-based; details: Homo sapiens, PBMC; for EC50: huPBMCs, LPS 50 ng/mL, 22 hours, IL-6 HTRF; for inhibition at 10 µM: read-out: percent inhibition at 10 μM
Summary of the method: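 Fresh human PBMCs at 1×10e6 cells/mL in RPMI/1% FBS were stimulated with 50 ng/mL E. coli 0111:B4 LPS added 2 h after compound, then incubated 22 h at 37° C. Secreted IL-6 was measured by HTRF (665/620 nm ratio) after 3 h at room temperature. EC50 was taken from activity normalized to DMSO-treated cells.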

[4] = system: primary human mesenchymal stem cells (hMSCs); assay: Tenocyte differentiation assay (SCXA-positive cells) in hMSCs; assay type: cell-based; details: for EC50: Homo sapiens, Mesenchymal stem cells, 96 h, hMSCs, 4 days, SCXA positive cells; for percent in parentheses under EC50 >100: given for EC50 >100 μM, meaning not defined in this example
Excerpt: Representative compounds were screened using primary human mesenchymal stem cells (hMSCs) to determine their ability to induce tenocyte differentiation (process by which tendon is developed).
Primary human mesenchymal stem cells (hMSCs) were purchased from Lonza (Walkersville, Md.) and expanded in Mesenchymal Stem Cell Growth Media (Lonza). Cells between passage 3 and 6 were used for the experiments.
Cells were fixed using 4% formaldehyde (Electron Microscopy Sciences), and stained with anti-Sclerasis (anti-SCXA) antibodies (Abgent, San Diego, Calif.) [Webb S., et.al., Retinoic acid receptor signaling preserves tendon stem cell characteristics and prevents spontaneous differentiation in vitro, Stem Cell Research & Therapy 2016, 7:45] overnight at 4° C. […] Number of cells positive for SCXA in each well was quantified using the CellInsight CX5. Data was normalized to the average of 12 DMSO treated wells on the same plate using Dotmatics Studies module. The normalized averages (fold change over DMSO) of 3 replicate wells for each compound concentration were calculated. Due to solubility limitations of some of the compounds, values for higher doses were manually corrected and curve fitting and EC50 determinations were performed using Dotmatics Studies.

GSK3β kinase, sequence (P49841 whole entry): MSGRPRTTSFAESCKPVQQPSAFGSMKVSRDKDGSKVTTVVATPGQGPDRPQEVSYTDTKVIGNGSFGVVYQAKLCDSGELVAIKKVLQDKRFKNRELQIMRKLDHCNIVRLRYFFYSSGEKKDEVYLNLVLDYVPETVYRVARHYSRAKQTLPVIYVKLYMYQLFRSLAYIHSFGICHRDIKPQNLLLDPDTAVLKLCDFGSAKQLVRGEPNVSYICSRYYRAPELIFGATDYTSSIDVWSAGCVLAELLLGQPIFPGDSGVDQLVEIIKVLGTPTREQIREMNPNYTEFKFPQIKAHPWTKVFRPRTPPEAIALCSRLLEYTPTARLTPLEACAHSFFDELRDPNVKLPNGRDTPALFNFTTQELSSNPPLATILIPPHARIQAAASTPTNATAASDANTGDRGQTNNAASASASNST

| Structure (SMILES) | EC50 [1] [nM] | IC50 (DYRK1A kinase) [nM] | IC50 (GSK3β kinase) [nM] | EC50 [2] [µM] | EC50 [3] [nM] | EC50 (IL-6) [µM] | inhibition at 10 µM (IL-6) [%] | EC50 [4] [nM] | percent in parentheses under EC50 >100 [4] |
| --- | --- | --- | --- | --- | --- | --- | --- | --- | --- |
| CC(C)CN1CC[C@H](NC(=O)c2n[nH]c3c(F)cc(-c4cnn(C)c4)cc23)[C@@H](F)C1 [Compound 35, 7-Fluoro-N-((3S,4S)-3-fluoro-1-isobutylpiperidin-4-yl)-5-(1-methyl-1H-pyrazol-4-yl)-1H-indazole-3-carboxamide] | 345 | 261 | 157 | 8.28 | 288 | > 10 | 9.2 | 2070 |  |
| Cc1ncc(-c2ccc3[nH]nc(C(=O)Nc4ccc(OC5CCN(C)CC5)cc4)c3c2)s1 [Compound 82, N-(4-((1-Methylpiperidin-4-yl)oxy)phenyl)-5-(2-methylthiazol-5-yl)-1H-indazole-3-carboxamide] | 1460 | 7 | 41 | 1.25 | 288 | 3.93 |  | > 100000 | (2.9%) |
| CN1CCC(n2cc(-c3ccc4[nH]nc(C(=O)Nc5ccc(OC(F)F)nc5)c4c3)cn2)CC1 [Compound 88, N-(6-(Difluoromethoxy)pyridin-3-yl)-5-(1-(1-methylpiperidin-4-yl)-1H-pyrazol-4-yl)-1H-indazole-3-carboxamide] | 435 | 16 | 774 | 0.338 | 624 | 8.78 |  | 2550 |  |
| CC(C)CN1CC[C@H](NC(=O)c2n[nH]c3ccc(-c4cnn(C5CC5)c4)cc23)[C@@H](F)C1 [Compound 99, 5-(1-Cyclopropyl-1H-pyrazol-4-yl)-N-((3 S,4S)-3-fluoro-1-isobutylpiperidin-4-yl)-1H-indazole-3-carboxamide] | 840 | 813 | 68 | 5.18 | 855 | 3.28 |  | 2830 |  |
| Cc1ncc(-c2ccc3[nH]nc(C(=O)N[C@H]4CCN(CC(C)C)C[C@@H]4F)c3c2)n1C [Compound 100, 5-(1,2-Dimethyl-1H-imidazol-5-yl)-N-((3 S,4 S)-3-fluoro-1-isobutylpiperidin-4-yl)-1H-indazole-3-carboxamide] | 1020 | 46 | 43 | 8.02 | 2360 | > 10 | 5.5 | 1880 |  |
| Cn1cc(-c2cc(F)c3[nH]nc(C(=O)NC4CCN(CC(F)F)CC4)c3c2)cn1 [Compound 101, N-(1-(2,2-Difluoroethyl)piperidin-4-yl)-7-fluoro-5-(1-methyl-1H-pyrazol-4-yl)-1H-indazole-3-carboxamide] | > 10000 | 408 | 86 | > 10 | > 10000 | > 10 | 14.1 | > 100000 | (33.0%) |
| Cn1cc(-c2ccc3[nH]nc(C(=O)NCC(F)(F)CN4CCCC4)c3c2)cn1 [Compound 106, N-(2,2-Difluoro-3-(pyrrolidin-1-yl)propyl)-5-(1-methyl-1H-pyrazol-4-yl)-1H-indazole-3-carboxamide] | 685 | 40 | 14 | > 10 | 795 | 6.85 |  | 1300 |  |
| Cn1cc(-c2cc(F)c3[nH]nc(C(=O)Nc4ccc(CN5CCCC5)cc4)c3c2)cn1 [Compound 119, 7-Fluoro-5-(1-methyl-1H-pyrazol-4-yl)-N-(4-(pyrrolidin-1-ylmethyl)phenyl)-1H-indazole-3-carboxamide] | 3060 | 21 | 41 | 1.87 | 315 | 1.93 |  | 14000 |  |
